The source of these data is patent US20230003721A1, “MITOTHERAPEUTICS FOR THE TREATMENT OF BRAIN DISORDERS” (The University of Florida Research Foundation, Inc., priority 2019, published 2023).

A word on the EC50: it is the midpoint of the concentration-response curve.

Where a name gives a salt, the structure may show the parent alone.

The test system of one assay is primary neurons. The experiment in a line: CellTiter-Glo luminescence-based ATP assay. It is filed as cell-based, mouse. As to conditions: ATP orthogonal screen, 24 h. In outline:
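Primary neurons treated from DIV13 for 24 h with compound or DMSO. After part of the medium was removed, CellTiter-Glo reagent was added; plates were shaken 10 min at 200 rpm, kept 2 min in the dark at room temperature, and luminescence read as total ATP.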
On to `CCN(CCCc1ccccc1)CCCc1ccccc1` [ALVERINE CITRATE], for which the ATP was 4.56 Z-scores.
As for `COc1ccccc1N1CCN(CC(O)COc2cccc3ccccc23)CC1` (stereo not shown) [NAFTOPIDIL], the ATP is reported as 3.62 Z-scores.
The molecule `COc1ccccc1OCCNCC(O)COc1cccc2[nH]c3ccccc3c12` (stereo not shown) [carvedilol] returned an ATP of 5.32 Z-scores.
The molecule `O=c1[nH]c2ccccc2n1C1CCN(CCCC(c2ccc(F)cc2)c2ccc(F)cc2)CC1` [pimozide] returned an ATP of 6.60 Z-scores.

Still in this assay, the particulars now being: Mus musculus, Primary neuron; dose response, 15 concentrations from 6 nM to 100 uM.
For the molecule `COc1ccccc1N1CCN(CC(O)COc2cccc3ccccc23)CC1` (stereo not shown) [NAFTOPIDIL], a half-maximal effect (EC50) was put at 0.23 µM.
Same read-out and setting: for `COc1ccccc1OCCNCC(O)COc1cccc2[nH]c3ccccc3c12` (stereo not shown) [carvedilol] the value was 0.23 µM.
Same read-out and setting: for `O=c1[nH]c2ccccc2n1C1CCN(CCCC(c2ccc(F)cc2)c2ccc(F)cc2)CC1` [pimozide] the value was 0.09 µM.

The assay is the same for the next values; noted with them: Mus musculus, Primary neuron; maximal percent increase relative to in-plate DMSO controls, dose response; read-out: ATP (Effect-size).
On to `COc1ccccc1N1CCN(CC(O)COc2cccc3ccccc23)CC1` (stereo not shown) [NAFTOPIDIL], for which the Emax turned out to be 15%.
On the same count and under the same terms, for `COc1ccccc1OCCNCC(O)COc1cccc2[nH]c3ccccc3c12` (stereo not shown) [carvedilol] the value was 15.9%; for `O=c1[nH]c2ccccc2n1C1CCN(CCCC(c2ccc(F)cc2)c2ccc(F)cc2)CC1` [pimozide], 20.4%.

Still in this assay, the particulars now being: after 24 hr of treatment.
Take `CCN(CCCc1ccccc1)CCCc1ccccc1` [ALVERINE CITRATE]: the “ATP production in neurons” value is “increased”.

The test system of a further assay is primary neurons.
Assay: not given
The conditions noted are these: 25 μM glutamate, 12.5 μM compound, 48 h.
As to `CCN(CCCc1ccccc1)CCCc1ccccc1` [ALVERINE CITRATE], the “protection from glutamate (GLUT) induced mitochondrial fragmentation” value was “fully protected”.

The assay is the same for the next values; noted with them: 75 μM peroxide, 12.5 μM compound, 48 h.
Regarding `CCN(CCCc1ccccc1)CCCc1ccccc1` [ALVERINE CITRATE], the “protection from peroxide (PO) induced mitochondrial fragmentation” value is “fully protected”.
In the case of `COc1ccccc1N1CCN(CC(O)COc2cccc3ccccc23)CC1` (stereo not shown) [NAFTOPIDIL], the “protection from peroxide (PO) induced mitochondrial fragmentation” value is given as “fully protected”.

The next assay concerns isolated forebrain mitochondria. Kind of assay: ATP production of isolated mitochondria (luciferase-based kinetic assay). It is filed as biochemical, mouse. As to conditions: 12 μM, starting 20 min after addition; DMSO 22498±358. Here is the method: Isolation of mitochondria. For the ATP synthesis experiments of FIG. 6, forebrains from P0 pups were dissected as described above. 2×10^7 cells were harvested for high-purity mitochondrial isolation using the Qiagen QProteome kit. The mitochondrial pellet was resuspended in 500 μl mitochondria storage buffer (provided by kit) and kept on ice until further use.
ATP production of isolated forebrain mitochondria of P0 pups was measured by ATP Determination Kit (Molecular Probes). […] The reactions were initiated by the addition of 1 mM ADP (deprived of ATP contamination by adding 3 U/ml hexokinase to 10 mM of ADP in 50 mM Tris-HCl, 20 mM MgCl2 and 22 mM glucose, incubating the solution at 37° C. for 1 hr and heat inactivating the hexokinase at 100° C. for 3 min). Luminescence was recorded every 15-30 sec for 1 hr at 580±40 nm.
Regarding `CCN(CCCc1ccccc1)CCCc1ccccc1` [ALVERINE CITRATE], the “ATP production kinetics, amplitude of single exponential fit” value was determined as 28383±278.
Same read-out and setting: as for `COc1ccccc1N1CCN(CC(O)COc2cccc3ccccc23)CC1` (stereo not shown) [NAFTOPIDIL], the figure is 49917±838.

The same assay, now with this note: 12.5 μM, within the 45-min measurement period, vs DMSO.
For the molecule `CCN(CCCc1ccccc1)CCCc1ccccc1` [ALVERINE CITRATE], the “ATP production of isolated mitochondria (direct effect)” value is on record as “significantly increased”.
With `COc1ccccc1N1CCN(CC(O)COc2cccc3ccccc23)CC1` (stereo not shown) [NAFTOPIDIL], the “ATP production of isolated mitochondria (direct effect)” value is listed as “significantly increased”.

Another assay relates to primary forebrain neurons. Kind of assay: cells. As to conditions: Mus musculus, Neuron, 24 h, read-out: Elongation (Dend Mt length) EC50. The procedure:
Primary forebrain cell culture and maintenance. Forebrains of P0 Mt or Mt/Ai14 pups without olfactory bulbs and meninges were collected and placed in ice cold Ca^2+ and Mg^2+ free HBSS supplemented with 2 μg/ml gentamicin, 25 mM D-glucose, 1 mM pyruvate and 20 mM HEPES. Brain tissue was digested with 0.6 mg/ml papain at 37° C. for 20 min. Forebrains were washed with plating media [Neurobasal (Gibco), 5% FBS, 4 mM GlutaMAX (Gibco), 2 μg/ml gentamicin]. The tissue was gently triturated, allowed to settle and the supernatant was filtered through a 40 μm mesh-sized cell strainer. Cells were centrifuged at 420×g for 4 min and resuspended in plating media. 15,000 cells per well were plated with 2×10^8 viral particles/ml onto black Greiner μClear (Cat #781946) or Ultra-Low Base Aurora with evaporation barrier (Cat #ABE201201B) 384-well plates (80 μl/well) pre-coated with poly-D-lysine for the primary screen and rescreen, respectively. Plating and media changes were performed using an automated Biomek FX^P liquid handling workstation. Four hr after plating, 75% of the plating media was replaced by feeding media [Neurobasal-A (Gibco), 4 mM GlutaMAX (Gibco), 2 μg/ml gentamicin, 2% B27 (Gibco)]. At DIV4, 50% of the media was exchanged with fresh feeding media supplemented with 16 μM 5-Fluoro-2′-deoxyuridine (FUdR) to prevent glial cell over-growth. At DIV8 and DIV12, additional 50% media changes were made without FUdR. Cells were maintained at 37° C. and 5% CO2; plates were topped with Breathe-Easy adhesive membranes (Greiner plates) to minimize evaporation.
Compounds and compound transfer.
Imaging. Images were captured using a GE Incell 6000 system (60× objective, 0.95 NA, 16-bit images) equipped with environmental control (37° C., 5% CO2). Mt-GFP (green channel) was imaged by confocal imaging (3 slices, Δz=0.7 μm, aperture=1.0 AU, λexc=488 nm, λem=515-535 nm). Cyto-tdTomato (red channel) and MitoTracker Orange (red channel) were imaged using confocal mode (3 slices, Δz=0.7 μm, aperture=1.0 AU, λexc=561 nm, λem=569-641 nm, MitoTracker Orange) or with widefield mode (Cyto-tdTomato). TMRM imaged for the co-localization experiments with Mt-GFP was imaged using the confocal mode (3 slices, […] aperture=1.0, λexc=488, λem=569-641 nm). For the live-dead assay, primary neurons were imaged with a 20× (widefield mode, NA 0.45) objective using λexc=561 nm and λem=569-641 nm for the propidium iodide stained dead cells (red channel), and λexc=488 nm and λem=515-535 nm for the fluorescein diacetate stained live cells (green channel). 10 fields were collected from each well, and 4 wells were imaged/condition in the live-dead assay. For all other experiments, 4 fields/well were imaged unless otherwise stated.
Automated data analysis pipeline. Most experiments utilized only Mt-GFP; some utilized both Mt-GFP and Cyto-tdTomato. The Z-projected images were preprocessed using a custom Fiji macro. For preprocessing of Mt-GFP images: background was subtracted (rolling ball, radius=3), images were median filtered (radius=1) and somatic mitochondria were removed. For removal of the somatic mitochondria, they were first segmented and then a somatic mitochondrial mask overlaid on the image.
As for `CCN(CCCc1ccccc1)CCCc1ccccc1` [ALVERINE CITRATE], the EC50 amounted to 2.9 µM.

Staying with this assay, now noted: Mus musculus, Neuron, 24 h, read-out: Health (Ax Mt Circularity) EC50.
As for `CCN(CCCc1ccccc1)CCCc1ccccc1` [ALVERINE CITRATE], the EC50 was determined as 0.3 µM.
Same read-out and setting: for `COc1ccccc1N1CCN(CC(O)COc2cccc3ccccc23)CC1` (stereo not shown) [NAFTOPIDIL] the value was 0.2 µM.

The assay is the same for the next values; noted with them: Mus musculus, Neuron, 24 h, read-out: Mt Content (Dend Mt CA) EC50.
Regarding `CCN(CCCc1ccccc1)CCCc1ccccc1` [ALVERINE CITRATE], the half-maximal effective concentration (EC50) was 0.2 µM.
Same read-out and setting: for `COc1ccccc1N1CCN(CC(O)COc2cccc3ccccc23)CC1` (stereo not shown) [NAFTOPIDIL] the value was 0.1 µM.

Still in this assay, the particulars now being: Mus musculus, Neuron, 24 h, read-out: Sprouting (Neurite Area) EC50.
Consider `CCN(CCCc1ccccc1)CCCc1ccccc1` [ALVERINE CITRATE], for which the EC50 was > 25 µM.
Same read-out and setting: for `COc1ccccc1N1CCN(CC(O)COc2cccc3ccccc23)CC1` (stereo not shown) [NAFTOPIDIL] the value was 0.5 µM.

The same assay, now with this note: rescreen, 12.5 μM, 24 h, vs DMSO wells.
As for `CCN(CCCc1ccccc1)CCCc1ccccc1` [ALVERINE CITRATE], the “Dendritic Mt CA” value amounted to 5.09 robust Z-scores and the “Neurite Area” value is on record as −1.50 robust Z-scores.
In the same order, the values of `COc1ccccc1N1CCN(CC(O)COc2cccc3ccccc23)CC1` (stereo not shown) [NAFTOPIDIL] are 4.86 robust Z-scores and 2.41 robust Z-scores.

A further assay relates to primary neurons. Kind of assay: TMRM fluorescence assay of inner mitochondrial membrane potential (ΔΨm). As to conditions: Mus musculus, Primary neuron, read-out: TMRM (Effect-size).
Take `COc1ccccc1N1CCN(CC(O)COc2cccc3ccccc23)CC1` (stereo not shown) [NAFTOPIDIL]: the Emax was found to be 18.8%.
Same read-out and setting: for `COc1ccccc1OCCNCC(O)COc1cccc2[nH]c3ccccc3c12` (stereo not shown) [carvedilol] the value was 20.2%; for `O=c1[nH]c2ccccc2n1C1CCN(CCCC(c2ccc(F)cc2)c2ccc(F)cc2)CC1` [pimozide], 25.1%.

The assay is the same for the next values; noted with them: Mus musculus, Primary neuron, read-out: TMRM-EC50.
For `COc1ccccc1N1CCN(CC(O)COc2cccc3ccccc23)CC1` (stereo not shown) [NAFTOPIDIL], the EC50 was 2.24 µM.
For `COc1ccccc1OCCNCC(O)COc1cccc2[nH]c3ccccc3c12` (stereo not shown) [carvedilol], the concentration for a half-maximal effect (EC50) stood at 0.35 µM.
The same measure, in the same setting: as for `O=c1[nH]c2ccccc2n1C1CCN(CCCC(c2ccc(F)cc2)c2ccc(F)cc2)CC1` [pimozide], the figure is 0.13 µM.

Staying with this assay, now noted: primary screen, 12.5 μM, 24 h.
As to `CCN(CCCc1ccccc1)CCCc1ccccc1` [ALVERINE CITRATE], the “TMRM Primary” value is given as 4.24 Z-scores.
`COc1ccccc1N1CCN(CC(O)COc2cccc3ccccc23)CC1` (stereo not shown) [NAFTOPIDIL]: the “TMRM Primary” value was 3.64 Z-scores.
On the same count and under the same terms, as for `COc1ccccc1OCCNCC(O)COc1cccc2[nH]c3ccccc3c12` (stereo not shown) [carvedilol], the figure is 4.11 Z-scores; as for `O=c1[nH]c2ccccc2n1C1CCN(CCCC(c2ccc(F)cc2)c2ccc(F)cc2)CC1` [pimozide], 2.65 Z-scores.

Staying with this assay, now noted: rescreen, 24 h.
On to `CCN(CCCc1ccccc1)CCCc1ccccc1` [ALVERINE CITRATE], for which the “TMRM Rescreen” value amounted to 4.15 Z-scores.
Same read-out and setting: as for `COc1ccccc1N1CCN(CC(O)COc2cccc3ccccc23)CC1` (stereo not shown) [NAFTOPIDIL], the figure is 9.07 Z-scores; as for `COc1ccccc1OCCNCC(O)COc1cccc2[nH]c3ccccc3c12` (stereo not shown) [carvedilol], 5.71 Z-scores; as for `O=c1[nH]c2ccccc2n1C1CCN(CCCC(c2ccc(F)cc2)c2ccc(F)cc2)CC1` [pimozide], 3.74 Z-scores.

Another assay deals with primary forebrain neurons.
Assay: not given
The conditions noted are these: 25 μM glutamate, 48 h.
Turning to `CCN(CCCc1ccccc1)CCCc1ccccc1` [ALVERINE CITRATE], the “live:dead cell ratio in the presence of toxic concentrations of glutamate” value is given as “offered protection”.

The next assay concerns Drosophila model for AD. Kind of assay: Drosophila model for AD: neuronal mitochondrial morphology. It is filed as in vivo. As to conditions: cell bodies of neurons; 100 micromolar, 15 days-of-age. From the text:
To assay representative compounds in this example, we employed a Drosophila model for AD (X. Wang et al., Mol. Neurobiol. […] Flies expressing this toxic protein show: […] Drugs that show efficacy therefore: enlarge neuronal mitochondria (increased volume, increased surface area, increased length), reduce sphericity, and reduce the number of mitochondria compared to untreated Alzheimer's flies. The AD model flies were collected immediately after eclosion from the pupal case and transferred to food that was laced with drug at 100 micromolar concentration. The flies were aged to 15 days-of-age: this is when the mitochondrial pathology is very robust. We compared the morphology of mitochondria collected from these flies treated with drug and compared them to the mitochondria of flies that remained untreated.
On to `COc1ccccc1OCCNCC(O)COc1cccc2[nH]c3ccccc3c12` (stereo not shown) [carvedilol], for which the “Surface area of mitochondria, p (treated vs untreated)” value is “p = 0.078”.
Turning to `O=c1[nH]c2ccccc2n1C1CCN(CCCC(c2ccc(F)cc2)c2ccc(F)cc2)CC1` [pimozide], the “Surface area of mitochondria, p (treated vs untreated)” value was “p = 0.017”.
